Our source for the IC50 and viability values is ChEMBL document CHEMBL6087417, “The synthesis and antileukemic activity of 5-substituted thiazolyl urea derivatives” (Bioorg Med Chem Lett, 2025).

One series relates to THP-1. Put plainly: Antileukemic activity against human THP-1 cells assessed as inhibition of cell proliferation by MTS assay. The series is classed as functional, cell-based.
Another series deals with MV4-11. Put plainly: Antileukemic activity against human MV4-11 cells assessed as inhibition of cell proliferation by MTS assay. The class given is functional, cell-based.
The nature of series [1]: Cytotoxicity against PBMC (unknown origin) assessed as cell survival at 20 uM relative to control. The class given is toxicity, cell-based. The note with it: read-out: Survival.

Each structure is given as a SMILES string.

On to `O=C(Nc1ncc(Cc2cccc(Br)c2)s1)N1CCN(c2ccc(Cl)cc2)CC1`, for which the IC50 turned out to be 330 nM in the series on THP-1 and 260 nM in the series on MV4-11.

In the case of `COc1ccc(Cc2cnc(NC(=O)N3C4CC[C@@H]3CN(c3ccc(Cl)cc3)C4)s2)cc1`, the IC50 with THP-1 was found to be 290 nM; with MV4-11 it was 310 nM.

As for `O=C(Nc1ncc(Cc2cccc(OCCCN3CCOCC3)c2)s1)N1CCN(c2ccc(Cl)cc2)CC1`, the half-inhibitory concentration (IC50) in the series with THP-1 and in the series on MV4-11 was more than 20000 nM each time.

For the compound `O=C(Nc1ncc(Cc2cccc(Br)c2)s1)N1CCN(c2cccc(C(F)(F)F)n2)CC1`, the IC50 in the series on THP-1 and in the series on MV4-11 was more than 20000 nM throughout.

`O=C(Nc1ncc(Cc2cccc(Br)c2)s1)N1CCN(c2cc(C(F)(F)F)cc(C(F)(F)F)c2)CC1`: the IC50 in the series with THP-1 and in the series with MV4-11 was more than 20000 nM throughout.

Consider `O=C(Nc1ncc(Cc2ccccc2C(F)(F)F)s1)N1CCN(c2ccc(Cl)cc2)CC1`, for which the IC50 with THP-1 was more than 20000 nM; with MV4-11, 4990 nM.

As to `O=C(Nc1ncc(Cc2cccc(Br)c2)s1)N1CCN(C(=O)c2ccc(Cl)cc2)CC1`, the IC50 in the series with THP-1 and in the series with MV4-11 was more than 20000 nM throughout.

`O=C(Nc1ncc(Cc2ccccc2Br)s1)N1CCN(c2ccccc2)CC1`: the results for the half-inhibitory concentration (IC50) in the series on THP-1 and in the series on MV4-11 were 2410 nM and 1460 nM, respectively.

`O=C(Nc1ncc(Cc2cccc(C(F)(F)F)c2)s1)N1CCN(c2ccc(Cl)cc2)CC1`: the figures for the IC50 in the series with THP-1 and in the series with MV4-11 were 370 nM and 300 nM, respectively.

For the compound `O=C(Nc1ncc(Cc2cccc(Br)c2)s1)N1CCN(c2cccc(F)n2)CC1`, the IC50 in the series with THP-1 and with MV4-11 was more than 20000 nM each time.

Regarding `O=C(Nc1ncc(Cc2cccc(Br)c2)s1)N1CCN(c2cccc(Cl)n2)CC1`, the IC50 with THP-1 was more than 20000 nM; with MV4-11 it was 16800 nM.

With `O=C(Nc1ncc(Cc2cccc(Br)c2)s1)N1CCCN(c2ccc(Cl)cc2)CC1`, the IC50 in the series on THP-1 and with MV4-11 was more than 20000 nM in each case.

For `O=C(Nc1ncc(Cc2cccc(Br)c2)s1)N1CCN(c2cccc(Br)n2)CC1`, the IC50 in the series with THP-1 and with MV4-11 was more than 20000 nM in each case.

As to `COCc1cccc(Cc2cnc(NC(=O)N3CCN(c4ccc(Cl)cc4)CC3)s2)c1`, the IC50 in the series on THP-1 and in the series with MV4-11 was 130 nM throughout.

Consider `O=C(Nc1ncc(Cc2ccc(Br)cc2)s1)N1CCN(c2ccccc2)CC1`, for which the IC50 was 4050 nM in the series on THP-1 and 1850 nM in the series on MV4-11.

For `COc1cccc(Cc2cnc(NC(=O)N3CCN(c4ccc(Cl)cc4)CC3)s2)c1`, the values for the IC50 in the series on THP-1 and in the series with MV4-11 were 210 nM and 130 nM, respectively.

For the compound `CC1CN(C(=O)Nc2ncc(Cc3cccc(Br)c3)s2)CCN1c1ccc(Cl)cc1` (configuration not stated), the values for the IC50 in the series on THP-1 and in the series on MV4-11 were more than 20000 nM and 14800 nM, respectively.

`O=C(Nc1ncc(Cc2ccc(Br)cc2)s1)N1CCN(c2ccc(O)cc2)CC1`: the IC50 with THP-1 and in the series on MV4-11 was more than 20000 nM in each case.

In the case of `CCc1nc(C(N)=O)c(Nc2ccc(N3CCC(N4CCN(C)CC4)CC3)c(OC)c2)nc1NC1CCOCC1` [GILTERITINIB], the IC50 in the series with MV4-11 amounted to 24 nM.

With `O=C(Nc1ncc(Cc2cccc(Br)c2)s1)N1CCN(S(=O)(=O)c2ccc(Cl)cc2)CC1`, the IC50 in the series on THP-1 and in the series on MV4-11 was more than 20000 nM each time.

For the compound `O=C(Nc1ncc(Cc2cccc(Br)c2)s1)N1CCN(c2ccc(F)cc2)CC1`, the IC50 in the series on THP-1 came out at 190 nM; in the series with MV4-11, 170 nM.

On to `O=C(Nc1ncc(Cc2ccccc2Cl)s1)N1CCN(c2ccc(Cl)cc2)CC1`, for which the IC50 with THP-1 worked out at 1110 nM; in the series on MV4-11 it was 160 nM.

With `O=C(Nc1ncc(Cc2cccc(O)c2)s1)N1CCN(c2ccc(Cl)cc2)CC1`, the IC50 in the series with THP-1 was determined as 110 nM; with MV4-11, 140 nM.

For the compound `O=C(Nc1ncc(Cc2ccc(C(F)(F)F)cc2)s1)N1CCN(c2ccc(Cl)cc2)CC1`, the concentration for half-maximal inhibition (IC50) in the series on THP-1 came to 180 nM; in the series with MV4-11, 230 nM.

For the compound `Cc1cccc(Cc2cnc(NC(=O)N3CCN(c4ccc(Cl)cc4)CC3)s2)c1`, the results for the IC50 with THP-1 and in the series on MV4-11 were more than 20000 nM and 210 nM, respectively.

Consider `O=C(Nc1ncc(Cc2cccc(Br)c2)s1)N1C2CC[C@@H]1CN(c1ccc(Cl)cc1)C2`, for which the IC50 in the series on THP-1 was more than 20000 nM; with MV4-11, 9730 nM.

On to `O=C(Nc1ncc(Cc2cccc(Br)c2)s1)N1CCN(c2ccccc2)CC1`, for which the results for the IC50 in the series with THP-1 and with MV4-11 were 4080 nM and 1310 nM, respectively.

For `O=C(Nc1ncc(Cc2cccc(Br)c2)s1)N1CC2CC1CN2c1ccc(Cl)cc1` (configuration not stated), the figures for the IC50 with THP-1 and in the series with MV4-11 were more than 20000 nM and 11100 nM, respectively.

As for `CC(C)Oc1cccc(Cc2cnc(NC(=O)N3CCN(c4ccc(Cl)cc4)CC3)s2)c1`, the IC50 in the series with THP-1 and with MV4-11 was more than 20000 nM in each case.

In the case of `O=C(Nc1ncc(Cc2ccc(Br)cc2)s1)N1CCN(c2ccc(Cl)cc2)CC1`, the IC50 in the series on THP-1 turned out to be 370 nM; in the series on MV4-11, 550 nM.

Turning to `N#Cc1ccc(N2CCN(C(=O)Nc3ncc(Cc4cccc(Br)c4)s3)CC2)cc1`, the 50% inhibitory concentration (IC50) in the series on THP-1 is 660 nM; in the series on MV4-11, 890 nM.

On to `O=C(Nc1ncc(Cc2ccc(Cl)cc2)s1)N1CCN(c2ccc(Cl)cc2)CC1`, for which the IC50 in the series with THP-1 turned out to be 170 nM; with MV4-11, 210 nM.

For `CC1CCN(C(=O)Nc2ncc(Cc3cccc(Br)c3)s2)CC1`, the results for the IC50 in the series with THP-1 and in the series on MV4-11 were 3240 nM and 2410 nM, respectively.

As for `Cc1ccnc(N2CCN(C(=O)Nc3ncc(Cc4cccc(Br)c4)s3)CC2)c1`, the IC50 in the series with THP-1 was more than 20000 nM; in the series with MV4-11, 5310 nM.

For `O=C(Nc1ncc(Cc2cccc(Cl)c2)s1)N1CCN(c2ccc(Cl)cc2)CC1`, the IC50 in the series on THP-1 is 200 nM; in the series with MV4-11, 390 nM.

For `CC1CCN(C(=O)Nc2ncc(Cc3ccc(Br)cc3)s2)CC1`, the values for the IC50 in the series with THP-1 and in the series with MV4-11 were 1390 nM and 1490 nM, respectively.

Consider `O=C(Nc1ncc(Cc2cccc(Br)c2)s1)N1CCN(Cc2ccc(Cl)cc2)CC1`, for which the IC50 in the series with THP-1 and in the series on MV4-11 was more than 20000 nM throughout.

With `O=C(Nc1ncc(Cc2cccc(Br)c2)s1)N1CCN(c2ccc(C(F)(F)F)cc2)CC1`, the IC50 in the series with THP-1 was more than 20000 nM; in the series on MV4-11, 4500 nM.

As for `O=C(Nc1ncc(Cc2cccc(Br)c2)s1)N1CCN(c2cccc(Cl)c2)CC1`, the IC50 is more than 20000 nM with THP-1 and 9980 nM in the series with MV4-11.

For `COc1ccc(Cc2cnc(NC(=O)N3CCCN(c4ccc(Cl)cc4)CC3)s2)cc1`, the IC50 in the series on THP-1 worked out at 270 nM; with MV4-11, 310 nM.

`Cc1cccc(N2CCN(C(=O)Nc3ncc(Cc4cccc(Br)c4)s3)CC2)n1`: the IC50 in the series with THP-1 and in the series with MV4-11 was more than 20000 nM each time.

As to `COc1ccccc1Cc1cnc(NC(=O)N2CCN(c3ccc(Cl)cc3)CC2)s1`, the IC50 in the series with THP-1 is 360 nM; in the series with MV4-11, 190 nM.

Take `Cc1ccc(N2CCN(C(=O)Nc3ncc(Cc4cccc(Br)c4)s3)CC2)cc1`: the IC50 in the series with THP-1 came to 3480 nM; with MV4-11, 2880 nM.

On to `O=C(Nc1ncc(Cc2ccccc2Br)s1)N1CCN(c2ccc(Cl)cc2)CC1`, for which the IC50 in the series on THP-1 was 1300 nM; with MV4-11 it was 1120 nM.

On to `CCOc1cccc(Cc2cnc(NC(=O)N3CCN(c4ccc(Cl)cc4)CC3)s2)c1`, for which the IC50 in the series with THP-1 and in the series with MV4-11 was more than 20000 nM throughout.

As to `Cc1ccc(N2CCN(C(=O)Nc3ncc(Cc4ccc(Br)cc4)s3)CC2)cc1`, the IC50 with THP-1 amounted to 1780 nM; in the series with MV4-11, 1110 nM.

For `COc1ccc(Cc2cnc(NC(=O)N3CCN(c4ccc(Cl)cc4)CC3)s2)cc1`, the viability at 20 µM in series [1] is 91.7%. Besides, the IC50 was determined as 29 nM in the series with THP-1 and 98 nM with MV4-11.

As to `O=C(Nc1ncc(Cc2cccc(Br)c2)s1)N1CCN(c2cc(Cl)cc(Cl)c2)CC1`, the IC50 with THP-1 and in the series with MV4-11 was more than 20000 nM throughout.

Take `Cc1ccc(N2CCN(C(=O)Nc3ncc(Cc4ccccc4Br)s3)CC2)cc1`: the IC50 in the series with THP-1 was determined as 9580 nM; with MV4-11, 2800 nM.

Take `O=C(Nc1ncc(Cc2cccc(Br)c2)s1)N1CCN(c2ccc(Cl)cn2)CC1`: the IC50 in the series on THP-1 worked out at 680 nM; in the series on MV4-11, 620 nM.

Consider `Nc1ccn([C@@H]2O[C@H](CO)[C@@H](O)[C@@H]2O)c(=O)n1` [CYTARABINE], for which the IC50 with THP-1 was found to be 460 nM.

Consider `O=C(Nc1ncc(Cc2cccc(Br)c2)s1)N1CCN(c2ccccc2Cl)CC1`, for which the IC50 in the series with THP-1 was determined as 1610 nM; with MV4-11 it was 1320 nM.

In the case of `O=C(Nc1ncc(Cc2cccc(Br)c2)s1)N1CCN(c2ccc([N+](=O)[O-])cc2)CC1`, the values for the IC50 in the series with THP-1 and in the series on MV4-11 were more than 20000 nM and 2050 nM, respectively.

Consider `CC1CCN(C(=O)Nc2ncc(Cc3ccccc3Br)s2)CC1`, for which the figures for the IC50 in the series on THP-1 and in the series with MV4-11 were 3840 nM and 1890 nM, respectively.
